Biological target: T1, CXCR7 (Homo sapiens, UniProt P25106)
T1 construct: host or cells: CHO-K1 (PathHunter CHO-K1 CXCR7 b-arrestin cell line, stably transfected)
Assay: PathHunter CHO-K1 CXCR7 b-arrestin recruitment assay (CXCR7 agonistic activity)
Type: cell-based
Conditions: PathHunter CHO-K1 CXCR7 b-arrestin cell line
Outline: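 Stable CHO-K1 line with C-terminally ProLink-tagged CXCR7 and β-arrestin 2–EA fusion; β-arrestin recruitment restores β-gal activity, read by chemiluminescence after 1 h RT detection. Cells seeded 24 h, starved in OPTIMEM 3–4 h, exposed to compounds 90 min at 37 °C in HBSS/HEPES/BSA. Geometric-mean EC50 from repeated measurements.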

T1 sequence (P25106 whole entry): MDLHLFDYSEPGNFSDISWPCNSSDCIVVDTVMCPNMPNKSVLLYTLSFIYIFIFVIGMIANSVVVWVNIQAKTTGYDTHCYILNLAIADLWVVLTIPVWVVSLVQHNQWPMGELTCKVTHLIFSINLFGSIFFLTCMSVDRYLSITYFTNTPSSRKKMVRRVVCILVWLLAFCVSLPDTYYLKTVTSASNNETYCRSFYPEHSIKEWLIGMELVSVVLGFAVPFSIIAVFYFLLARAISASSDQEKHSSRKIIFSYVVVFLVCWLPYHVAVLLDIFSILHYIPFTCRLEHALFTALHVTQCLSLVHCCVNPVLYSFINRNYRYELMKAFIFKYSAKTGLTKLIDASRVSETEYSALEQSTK
T1 sequence (P32121 whole entry partner): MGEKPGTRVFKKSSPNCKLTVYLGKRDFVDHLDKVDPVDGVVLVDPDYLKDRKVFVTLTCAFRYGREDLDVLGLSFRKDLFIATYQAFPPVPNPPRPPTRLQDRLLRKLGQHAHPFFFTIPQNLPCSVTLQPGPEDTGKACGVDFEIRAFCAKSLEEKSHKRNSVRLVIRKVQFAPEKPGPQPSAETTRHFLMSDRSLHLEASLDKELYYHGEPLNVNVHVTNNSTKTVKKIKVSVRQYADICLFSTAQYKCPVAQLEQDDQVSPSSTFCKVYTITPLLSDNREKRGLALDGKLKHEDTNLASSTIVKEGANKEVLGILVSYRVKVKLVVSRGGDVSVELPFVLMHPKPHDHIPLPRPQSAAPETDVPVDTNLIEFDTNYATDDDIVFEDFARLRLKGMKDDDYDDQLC

EC50 [nM]	Structure (SMILES)
272	CC(C)(C)OC(=O)N1[C@H](CN(Cc2ccccc2C(F)(F)F)C(=O)CNc2cccc3c2CCN(CC2CC2)C3)COC1(C)C [Example 84, (R)-4-{[[2-(2-Cyclopropylmethyl-1,2,3,4-tetrahydro-isoquinolin-5-ylamino)-acetyl]-(2-trifluoromethyl-benzyl)-amino]-methyl}-2,2-dimethyl-oxazolidine-3-carboxylic acid tert-butyl ester]
101	CC(C)OC(=O)N1CCc2c(cccc2NCC(=O)N(CCN(C)C)Cc2ccccc2)C1 [compound 121]
88	CN(CCN(Cc1ccccc1C(F)(F)F)C(=O)CNc1cccc2c1CCN(CC1CC1)C2)C(=O)OC(C)(C)C [Example 83, {2-[[2-(2-Cyclopropylmethyl-1,2,3,4-tetrahydro-isoquinolin-5-ylamino)-acetyl]-(2-trifluoromethyl-benzyl)-amino]-ethyl}-methyl-carbamic acid tert-butyl ester]
10	COCC(O)CN(Cc1ccccc1C(F)(F)F)C(=O)CNc1cccc2c1CCN(CC1CC1)C2 (stereo not drawn) [Example 223, 2-(2-Cyclopropylmethyl-1,2,3,4-tetrahydro-isoquinolin-5-ylamino)-N-(2-hydroxy-3-methoxy-propyl)-N-(2-trifluoromethyl-benzyl)-acetamide]
115	CCN1CCc2cccc(NCC(=O)N(CCc3cccc(C(F)(F)F)c3)CCN(C)C)c2C1 [compound 539]
23	CC(C)(O)CN(Cc1ncccc1Cl)C(=O)/C=C/c1cccc2c1CCN(CC1CC1)C2 [Example 329, (E)-N-(3-Chloro-pyridin-2-ylmethyl)-3-(2-cyclopropylmethyl-1,2,3,4-tetrahydro-isoquinolin-5-yl)-N-(2-hydroxy-2-methyl-propyl)-acrylamide]
26	COC(=O)N1CCc2c(cccc2NCC(=O)N(CCN(C)C)Cc2ccccc2)C1 [Example 113, 5-({[Benzyl-(2-dimethylamino-ethyl)-carbamoyl]-methyl}-amino)-3,4-dihydro-1H-isoquinoline-2-carboxylic acid methyl ester]
117	CN(C)CCN(Cc1ccccc1)C(=O)CNc1cccc2c1CN(C(=O)OC(C)(C)C)CC2 [Example 181, 8-({[Benzyl-(2-dimethylamino-ethyl)-carbamoyl]-methyl}-amino)-3,4-dihydro-1H-isoquinoline-2-carboxylic acid tert-butyl ester]
37	CC(C)CN1CCc2cccc(NCC(=O)N(CCN(C)C)Cc3ccccc3)c2C1 [compound 189, N-Benzyl-N-(2-dimethylamino-ethyl)-2-(2-isobutyl-1,2,3,4-tetrahydro-isoquinolin-8-ylamino)-acetamide]
106	CNCCN(Cc1ncccc1C(F)(F)F)C(=O)CNc1cccc2c1CCN(C(=O)OCCOC)C2 [compound 427]
6	O=C(CNc1cccc2c1CCN(CC1CC1)C2)N(Cc1ccccc1C(F)(F)F)C[C@H]1CCNC1 [compound 380]
79	CCN1CCc2cccc(NCC(=O)N(CCN(C)C)Cc3ccc(C)cc3)c2C1 [compound 496]
4	CCC(=O)N1CCc2c(cccc2NCC(=O)N(CCN(C)C)Cc2ccccc2C(F)(F)F)C1 [Example 35, N-(2-Dimethylamino-ethyl)-2-(2-propionyl-1,2,3,4-tetrahydro-isoquinolin-5-ylamino)-N-(2-trifluoromethyl-benzyl)-acetamide]
32	CN(C)CCN(Cc1ccccc1C(F)(F)F)C(=O)CNc1cccc2c1C(C)(C)CN(C(=O)OC(C)(C)C)C2 [Example 90, 5-({[(2-Dimethylamino-ethyl)-(2-trifluoromethyl-benzyl)-carbamoyl]-methyl}-amino)-4,4-dimethyl-3,4-dihydro-1H-isoquinoline-2-carboxylic acid tert-butyl ester]
24	CCN1Cc2cccc(NCC(=O)N(CCN3CCCC3)Cc3ccccc3C(F)(F)F)c2CC1=O [Example 311, 2-(2-Ethyl-3-oxo-1,2,3,4-tetrahydro-isoquinolin-5-ylamino)-N-(2-pyrrolidin-1-yl-ethyl)-N-(2-trifluoromethyl-benzyl)-acetamide]
16	C=CCN(C)CCN(Cc1ccccc1C(F)(F)F)C(=O)CNc1cccc2c1CN(CC=C)CC2 [compound 463, N-[2-(Allyl-methyl-amino)-ethyl]-2-(2-allyl-1,2,3,4-tetrahydro-isoquinolin-8-ylamino)-N-(2-trifluoromethyl-benzyl)-acetamide]
271	O=C(CNc1cccc2c1CCN(C(=O)[C@@H]1C[C@@H]1F)C2)N(Cc1ccccc1C(F)(F)F)CC1(O)CCCC1 (racemic) [Example 372, rac-2-[2-((1S*,2S*)-2-Fluoro-cyclopropanecarbonyl)-1,2,3,4-tetrahydro-isoquinolin-5-ylamino]-N-(1-hydroxy-cyclopentylmethyl)-N-(2-trifluoromethyl-benzyl)-acetamide]
6	CCN(CCN(Cc1ccccc1C(F)(F)F)C(=O)CNc1cccc2c1CCN(CC1CC1)C2)CC1(C)COC1 [compound 453]
1	CN(CCN(Cc1ccccc1C(F)(F)F)C(=O)CNc1cccc2c1CCN(CC1CC1)C2)CC1CC1 [compound 450, N-[2-(Cyclopropylmethyl-methyl-amino)-ethyl]-2-(2-cyclopropylmethyl-1,2,3,4-tetrahydro-isoquinolin-5-ylamino)-N-(2-trifluoromethyl-benzyl)-acetamide]
147	COc1ccc(CCN(CCN(C)C)C(=O)CNc2cccc3c2CCN(CC2CC2)C3)cc1OC [Example 59, 2-(2-Cyclopropylmethyl-1,2,3,4-tetrahydro-isoquinolin-5-ylamino)-N-[2-(3,4-dimethoxy-phenyl)-ethyl]-N-(2-dimethylamino-ethyl)-acetamide]
61	CCC(=O)N1CCc2c(cccc2NCC(=O)N(CCN(C)C)Cc2cccc(Cl)c2)C1 [Example 18, N-(3-Chloro-benzyl)-N-(2-dimethylamino-ethyl)-2-(2-propionyl-1,2,3,4-tetrahydro-isoquinolin-5-ylamino)-acetamide]
1	CN(C)CCN(Cc1ccccc1C(F)(F)F)C(=O)/C=C/c1cccc2c1CCN(CC1CC1)C2 [compound 150, (E)-3-(2-Cyclopropylmethyl-1,2,3,4-tetrahydro-isoquinolin-5-yl)-N-(2-dimethylamino-ethyl)-N-(2-trifluoromethyl-benzyl)-acrylamide]
92	CCN1CCc2cccc(NCC(=O)N(CCN(C)C)Cc3nc(C)cs3)c2C1 [compound 536]
187	CN(C)CCN(Cc1ccccc1)C(=O)CNc1cccc2c1CCN(CC(F)(F)F)C2 [Example 85, N-Benzyl-N-(2-dimethylamino-ethyl)-2-[2-(2,2,2-trifluoro-ethyl)-1,2,3,4-tetrahydro-isoquinolin-5-ylamino]-acetamide]
198	CNCCN(Cc1ccccc1C(F)(F)F)C(=O)CNc1cccc2c1CCN(C(=O)OCC(C)(C)C)C2 [compound 402]

Structure (SMILES)	EC50 [nM]
CN(C)CCN(Cc1ccccc1)C(=O)Cc1cccc2c1CCN(CC1CC1)C2 [Example 1, N-Benzyl-2-(2-cyclopropylmethyl-1,2,3,4-tetrahydro-isoquinolin-5-yl)-N-(2-dimethylamino-ethyl)-acetamide]	79
CN(C)CCN(Cc1ccccc1C(F)(F)F)C(=O)COc1cccc2c1CCN(CC1CC1)C2 [compound 174, 2-(2-Cyclopropylmethyl-1,2,3,4-tetrahydro-isoquinolin-5-yloxy)-N-(2-dimethylamino-ethyl)-N-(2-trifluoromethyl-benzyl)-acetamide]	0.8

From patent publication US9920010B2, “CXCR7 receptor modulators” (IDORSIA PHARMACEUTICALS LTD, priority 2013, dated 2018)
